Test results published in patent publication US10174015B2, “Substituted heterocyclic derivative, preparation method and use thereof” (Xiamen University, priority 2014, dated 2019).
Where two headings read alike, the source gives them in different places.

Tests used:
RAW264.7 cells = assay: Assay on cytotoxicity (CCK8); assay type: cell-based; conditions: RAW264.7 cells, 3, 10, 30, 100 μM, 24 h and 48 h; compound 9 except at 100 μM
Method: RAW264.7 cells in good growing state (purchased from American Type Culture Collection, ATCC, Beijing), at a density of about 80%-90%, were scraped off with a cell scraper to prepare a cell suspension. After counting, the cells were accurately seeded in a 96-well plate, at 100 μL per well, wherein the total number of cells retained the same, at about 20000 cells/well, and the same amount of culture medium (which was DMEM (Gibco, Shanghai) medium containing 10% fetal bovine serum (PAA), 1% penicillin-streptomycin (PAA)) was added. The 96-well plate was placed in an incubator to preincubate for 24 h (37° C., 5% CO2). The marginal wells of the plate were filled with an equal amount of PBS, but were not seeded with cells, so as to prevent evaporation of the culture medium in the experimental group. […] After incubating the plate in the incubator for a period of time (24 or 48 h), 10 μL CCK8 solution was added to each well, and then the plate was incubated in incubator for 1.5 h. the absorbance OD value was determined at 450 nm by microplate reader, and the OD value was proportional to the number of living cells. […]

[1] = test system: headache caused by nitroglycerin; assay: Nitroglycerin-induced headache rat model; assay type: in vivo, Wistar rats; conditions: rats, 10 mg/kg i.p. 1 h before nitroglycerin (FIG. 5)
Method: In the Experimental example, compounds to be evaluated or compounds to be tested or test compounds used are the Compounds 1-46 prepared in the Examples according to the invention. In the Experimental example, all the agents for injection, including compounds to be evaluated or compounds to be tested or test compounds, and positive control drug, were dissolved in a mixed solvent of PEG400:Tween 80:normal saline (at a volume ratio of 5:5:90), at a concentration of 5 mg/mL.
Nitroglycerin-induced headache rat model was a common model for studying inflammatory pain medically. The model was used in the invention to evaluate the therapeutic effects of the compounds on headache. The model can represent mixed pain including, but not only limited to: migraine, cluster headache, tension headache syndrome, prosopodynia, lumbodynia, shoulder pain, burning mouth syndrome, and complex regional pain syndrome.
Experimental Wistar rats with a body weight of about 250 g for each (purchased from Shanghai SLAC Laboratory Animal Co., Ltd) were in an experimental environment with free access to food and water for 1 week. The rats were fasted for 24 h before administration. The compound to be evaluated (10 mg/kg) was intraperitoneally injected to the rat at 1 h before the administration of nitroglycerin, wherein the positive control drug was indomethacin and the blank control was normal saline. Nitroglycerin (10 mg/kg, nitroglycerin dissolved in normal saline, at a concentration of 5%) was injected at epidermis of the rat neck, and the rats were then placed in the observation cage. A video camera was used to record the behavior of the rats in the following 60 min. Pain-related behavior was analyzed statistically based on the times that the rat scratched its head in said period.

zebrafish embryos = assay type: in vivo; conditions: for Death number (72 h): n = 30; for observation of zebrafish embryo development: 48 h; for Body length (72 h) / Hatching number (72 h) / Heartbeat (72 h) / Unhatching number (72 h) / hatching rate: zebrafish, in vivo, 72 h
Method: By the same method described above, zebrafish fertilized eggs were cultured. 7 Groups were set for each test compound, including 5 experimental groups relating to the test compound at different concentrations (solutions containing the test compound at different concentrations were prepared by using zebrafish embryo culture medium, wherein the concentrations were 100 mg/L, 10 mg/L, 1 mg/L, 0.1 mg/L, 0.01 mg/L), 1 solvent control group (DMSO) and 1 blank control group. The fertilized eggs were placed and cultured in a 28.5° C. incubator, a certain humidity was ensured in the culture environment. Culture medium containing a test compound was prepared, and the culture medium was added to a 96-well plate in advance, and each fertilized egg (by reference to the experimental method in OECD No. 212 document, fertilized eggs, which developed normally within 24 h after fertilization, were selected and subjected to exposure. Transparent fish eggs visible to naked eye were normally fertilized, while white fish eggs were dead and discarded. After the selection, the normally fertilized eggs had begun to divide as observed under microscope) was then independently placed in a different well, and cultured in the culture medium containing a test compound at a different concentration. Embryo development status at different stages were observed and photographed with invert microscope, including:
I. Morphological observation: the developmental states of fertilized eggs (yolk being coagulated or not, eye spot, pericardial sac being edematous or not, bloodstream being existing or not, tail development status, and the like) were observed and photographed at 48 h, 72 h, and 96 h;
II. Hatching number and death number were counted at 72 h after fertilization, and hatching rate and mortality were calculated;
III. Body length of the hatched young fishes at 72 h was measured (measured after photographing with invert microscope); […]
V. Heartbeat of young fishes (times/min) was recorded at 72 h and 96 h after fertilization (Recording method: heartbeat of young fishes could be clearly observed under microscope, and the number of heartbeats was recorded for 30 s).

SMILES	effect on cell viability (RAW264.7 cells)	effect of inhibiting nitroglycerin-induced headache [1]	Death number (72 h) (zebrafish embryos; 0.01 mg/L)	Death number (72 h) (zebrafish embryos; 0.1 mg/L)	Death number (72 h) (zebrafish embryos; 1 mg/L)	Death number (72 h) (zebrafish embryos; 10 mg/L)	observation of zebrafish embryo development (zebrafish embryos; 100 mg/L)	Death number (72 h) (zebrafish embryos; 100 mg/L)	Body length (72 h) (zebrafish embryos; 0.01 mg/L)	Hatching number (72 h) (zebrafish embryos; 0.01 mg/L)	Heartbeat (72 h) (zebrafish embryos; 0.01 mg/L)	Unhatching number (72 h) (zebrafish embryos; 0.01 mg/L)	Body length (72 h) (zebrafish embryos; 0.1 mg/L)	Hatching number (72 h) (zebrafish embryos; 0.1 mg/L)	Heartbeat (72 h) (zebrafish embryos; 0.1 mg/L)	Unhatching number (72 h) (zebrafish embryos; 0.1 mg/L)	Body length (72 h) (zebrafish embryos; 1 mg/L)	Hatching number (72 h) (zebrafish embryos; 1 mg/L)	Heartbeat (72 h) (zebrafish embryos; 1 mg/L)	Unhatching number (72 h) (zebrafish embryos; 1 mg/L)	other results
O=C(CCCCCc1cccc(Cl)c1)N1CCOC1=O [Compound 9, 3-Chlorophenylhexanoyl Oxazolidinone]	no effect on cell viability	significant effects of inhibiting nitroglycerin-induced headache in rats	0	0	0	0	no zebrafish embryos died, but phenomena such as pericardial cyst, no heartbeat, no bloodstream, no tail development and the like occurred in embryos	30	4.01 ± 0.24 mm	30	124 ± 0.27 per min	0	4.03 ± 0.62 mm	30	124 ± 1.17 per min	0	4.01 ± 0.26 mm	30	124 ± 1.08 per min	0	Body length (72 h) (zebrafish embryos; 10 mg/L): 3.82 ± 0.44 mm; Hatching number (72 h) (zebrafish embryos; 10 mg/L): 28; Heartbeat (72 h) (zebrafish embryos; 10 mg/L): 117 ± 2.24 per min; Unhatching number (72 h) (zebrafish embryos; 10 mg/L): 2; hatching rate (zebrafish embryos; 10 mg/L): 93.3%; Hatching number (72 h) (zebrafish embryos; 100 mg/L): 0; Unhatching number (72 h) (zebrafish embryos; 100 mg/L): 30
O=C(CCCCCc1ccccc1)N1CCOC1=O [Compound 2, Phenylhexanoyl Oxazolidinone]	no effect on cell viability	significant effects of inhibiting nitroglycerin-induced headache in rats	0	0	0	0	no zebrafish embryos died, but phenomena such as pericardial cyst, no heartbeat, no bloodstream, no tail development and the like occurred in embryos	30	3.90 ± 0.93 mm	30	124 ± 1.67 per min	0	4.08 ± 0.09 mm	30	123 ± 2.45 per min	0	3.92 ± 0.10 mm	30	123 ± 3.03 per min	0	Body length (72 h) (zebrafish embryos; 10 mg/L): 3.78 ± 0.05 mm; Hatching number (72 h) (zebrafish embryos; 10 mg/L): 28; Heartbeat (72 h) (zebrafish embryos; 10 mg/L): 117 ± 3.90 per min; Unhatching number (72 h) (zebrafish embryos; 10 mg/L): 2; hatching rate (zebrafish embryos; 10 mg/L): 93.3%; Hatching number (72 h) (zebrafish embryos; 100 mg/L): 0; Unhatching number (72 h) (zebrafish embryos; 100 mg/L): 30
